According to patent publication US3955959A, “Herbicide for use in transplanted rice” (priority 1974, dated 1976):
Several values for one entry are separate records, joined by “and”; a condition that tells them apart may be missing. Identical values can stand only once.

Legend:
[1] = test system: weeds in transplanted rice; test: Field tests / general herbicidal activity in transplanted rice; format: in vivo
[2] = test system: Sedges: Cd, Ci, Fl (Cyperus difformis, Cyperus iria, Fimbristylis littoralis); test: Example 4 field test on ordinary rice, weed control, Munoz, Philippines; format: in vivo; settings: obs. 36 DAT
Source text: (§1) Treatments were replicated four times.

[3] = test system: Grass: Ec and Ecol (Echinochloa crusgalli, Echinochloa colonum); test: as above; format: in vivo; settings: obs. 36 DAT
Source text: as §1

Dapog transplanted rice [4] = test: Example 3 field test, crop injury; settings: for Crop Injury (%): obs. 42 DAT
Experimental: (§2) In the tests described in the tables below, the herbicides were formulated and used in granular form in conventional manner. […] The commercial herbicide used was a granular product having 5% active ingredient.
(§3) In the field tests of the herbicide of this invention with transplanted rice, the rice seedlings were grown in conventional manner, by seeding the rice in a typical seedbed of sandy loam to clay soil of the country wherein the test was conducted. For laboratory and greenhouse work the seedlings were obtained by seeding rice in a mixture of soil, e.g., Ray silt loam, and peat in wood flats. For purposes of testing the herbicides on younger rice seedlings (infant or Dapog) the rice was usually allowed to grow for 6-15 days before lifting for transplanting. Older (ordinary) rice plants were usually grown for a period of about 2-3 weeks, or as much as about 7 weeks before lifting. Since the period of growth is dependent upon climatic conditions, a better measure of when to transplant the rice seedling is the leaf stage of growth; for infant or Dapog rice the seedling is lifted at the 1.5-2 leaf stage of growth, and for ordinary seedlings at the 2.5-5 leaf stage. The seedlings were then transplanted to the test plots for evaluation of the herbicide for injury against weed species present with the transplanted rice. The herbicides were then applied to the growth medium of the weeds and transplant rice, either preemergent or postemergent with respect to the weeds and postemergent with respect to the transplanted rice. Application times are designated in the tables as "DAT", meaning "days after transplant". Application rates given in the tables refer to the amount of active ingredient used.
(§4) Eleven (11) day-old Dapog seedlings were transplanted and treated at 5 DAT and 14 DAT with Herbicides A and B. The plots were overseeded with Echinochloa crusgalli seeds at 2 kgs/ha prior to transplanting. Treatments were replicated four times.

[5] = test system: Broadleaf: Mv, Sz (Monochoria vaginalis, Sphenoclea zeylanica); test: Example 3 field test on Dapog rice, weed control, Munoz, Philippines; format: in vivo, Monochoria vaginalis and Sphenoclea zeylanica; settings: obs. 42 DAT
Source text: as §1

Dapog transplanted rice [6] = test: Example 3 field test, rice yield; format: in vivo; settings: in vivo
Experimental: as §2, §3, §4

[7] = test system: transplanted rice (ordinary and infant seedlings); test: Example 5 field test, rice injury
Experimental: as §2, §3
The rice seedlings were grown to the 1.7 leaf stage for infant seedlings and to the 5.5 leaf stage for ordinary seedlings. Two days after puddling the soil in which the seedlings were to be transplanted, both infant and ordinary seedlings were transplanted into plots 8.5 m^2.
The weed symbol "Obw" represents "other broadleaf weeds" of unspecified identity. Results presented in Table 5 represent the average of 2 replications.

[8] = test system: weeds in ordinary transplanted rice; test: Example 4 field test, overall weed control; format: in vivo
Source text: as §1

Aj (Aneiliema japonica) = test: Example 1 field test, weed control in transplanted rice, Iri, Korea; format: in vivo; settings: av. of 36 and 63 DAT
Source text: (§5) In the field test 48 day-old seedlings (Watanabe variety) were transplanted to plots 2.5 × 6 m. seeded with the weed seeds indicated in Table 1. At 5 and 10 DAT periods, the herbicides were applied to the plants (now at the 1.2 and 2.0 leaf stage, respectively, of grass weed) at the indicated rate in kilograms per hectare (kg/ha). The weed control and rice injury results for 3 replications are reported in percentages as of the indicated times of observation. The percentages given in the "Perennials" column are based on the weight of the weeds at 63 DAT, i.e., 42 gms/3.6 m^2 for the weedy check.

[9] = test system: Mv (Monochoria vaginalis); test: as above; format: in vivo; settings: av. of 36 and 63 DAT
Source text: as §5

Ci (Cyperus iria) = test: as above; format: in vivo; settings: av. of 36 and 63 DAT
Source text: as §5

[10] = test system: Eo (Echinochloa oryzicola); test: as above; format: in vivo; settings: av. of 36 and 63 DAT
Source text: as §5

[11] = test system: Obw (other broadleaf weeds); test: Example 5 field test, weed control, JAAPR, Japan; format: in vivo
[12] = 1.0 kg/ha, 15 DAT, infant seedlings
[13] = 1.0 kg/ha, 15 DAT, ordinary seedlings
[14] = .25 kg/ha, 2 DAT, infant seedlings
[15] = .25 kg/ha, 2 DAT, ordinary seedlings
[16] = .5 kg/ha, 7 DAT, infant seedlings
[17] = .5 kg/ha, 7 DAT, ordinary seedlings

CCCCOCN(C(=O)CCl)c1c(C)cccc1C(C)(C)C [Herbicide A, n-(butoxymethyl)-6'-tert-butyl-2-chloro-o-acetotoluidide]
latest/optimum application stage of weeds ([1]; field tests): 2-2.5 leaf stage | control of undesirable vegetation ([1]; monocotyledons and dicotyledons): fair to excellent control | herbicidal activity in transplanted rice ([1]; presence of transplanted rice): superior herbicidal activity | selectivity vs Herbicide B in transplant rice ([1]; transplant rice cultures): more selective | % Weed control, Sedges (Cd, Ci, Fl) ([2]; 5 DAT, 1.0 kg/ha): 100% | % Weed control, Sedges (Cd, Ci, Fl) ([2]; 5 DAT, 2.0 kg/ha): 100% | % Weed control, Sedges (Cd, Ci, Fl) ([2]; 5 DAT, .25 kg/ha): 100% | % Weed control, Sedges (Cd, Ci, Fl) ([2]; 5 DAT, .5 kg/ha): 100% | % Weed control, Sedges (Cd, Ci, Fl) ([2]; 14 DAT, 1.0 kg/ha): 60% | % Weed control, Sedges (Cd, Ci, Fl) ([2]; 14 DAT, 2.0 kg/ha): 60% | % Weed control, Sedges (Cd, Ci, Fl) ([2]; 14 DAT, .25 kg/ha): 60% | % Weed control, Sedges (Cd, Ci, Fl) ([2]; 14 DAT, .5 kg/ha): 50% | % Weed control, Grass (Ec and Ecol) ([3]; 5 DAT, 1.0 kg/ha): 100% | % Weed control, Grass (Ec and Ecol) ([3]; 5 DAT, 2.0 kg/ha): 100% | % Weed control, Grass (Ec and Ecol) ([3]; 5 DAT, .25 kg/ha): 100% | % Weed control, Grass (Ec and Ecol) ([3]; 5 DAT, .5 kg/ha): 100% | % Weed control, Grass (Ec and Ecol) ([3]; 14 DAT, 1.0 kg/ha): 80% | % Weed control, Grass (Ec and Ecol) ([3]; 14 DAT, 2.0 kg/ha): 80% | % Weed control, Grass (Ec and Ecol) ([3]; 14 DAT, .25 kg/ha): 60% | % Weed control, Grass (Ec and Ecol) ([3]; 14 DAT, .5 kg/ha): 80% | Crop Injury (%) (Dapog transplanted rice [4]; 5 DAT, 1.0 kg/ha): 40% | Crop Injury (%) (Dapog transplanted rice [4]; 5 DAT, 2.0 kg/ha): 50% | Crop Injury (%) (Dapog transplanted rice [4]; 5 DAT, .25 kg/ha): 0% | Crop Injury (%) (Dapog transplanted rice [4]; 5 DAT, .5 kg/ha): 0% | Crop Injury (%) (Dapog transplanted rice [4]; 14 DAT, 1.0 kg/ha): 0% | Crop Injury (%) (Dapog transplanted rice [4]; 14 DAT, 2.0 kg/ha): 80% | Crop Injury (%) (Dapog transplanted rice [4]; 14 DAT, .25 kg/ha): 0% | Crop Injury (%) (Dapog transplanted rice [4]; 14 DAT, .5 kg/ha): 0% | rice injury in words (Dapog transplanted rice [4]; higher rates, 5 DAT): considerable rice injury | % Weed control, Broadleaf (Mv,Sz) ([5]; 5 DAT, 1.0 kg/ha): 100% | % Weed control, Broadleaf (Mv,Sz) ([5]; 5 DAT, 2.0 kg/ha): 100% | % Weed control, Broadleaf (Mv,Sz) ([5]; 5 DAT, .25 kg/ha): 100% | % Weed control, Broadleaf (Mv,Sz) ([5]; 5 DAT, .5 kg/ha): 100% | % Weed control, Broadleaf (Mv,Sz) ([5]; 14 DAT, 1.0 kg/ha): 60% | % Weed control, Broadleaf (Mv,Sz) ([5]; 14 DAT, 2.0 kg/ha): 60% | % Weed control, Broadleaf (Mv,Sz) ([5]; 14 DAT, .25 kg/ha): 0% | % Weed control, Broadleaf (Mv,Sz) ([5]; 14 DAT, .5 kg/ha): 60% | Yield (% of H.W. Check) (Dapog transplanted rice [6]): 182% and 177% and 139% and 104% and 93% and 98% and 113% | rice yield vs hand weeded check (Dapog transplanted rice [6]): statistically similar to the hand weeded check | yield in words (Dapog transplanted rice [6]): outstanding | Injury [7, 12]: 0 | Injury [7, 13]: 0 | Injury [7, 14]: 0 | Injury [7, 15]: 0 | Injury [7, 16]: 0 | Injury [7, 17]: 0 | injury to seedlings in words ([7]; ordinary and infant seedlings): Injury to neither ordinary nor infant seedlings occurred | control of all weeds ([8]; 5 DAT): complete control of all weeds | weed control in words ([8]; 14 DAT): dropped off | weed control vs Herbicide B ([8]; 14 DAT): more weed control | % Weed Control (Aj) (Aj (Aneiliema japonica); 5 DAT, 1.0 kg/ha): 81% | % Weed Control (Aj) (Aj (Aneiliema japonica); 5 DAT, 2.0 kg/ha): 86% | % Weed Control (Aj) (Aj (Aneiliema japonica); 5 DAT, .25 kg/ha): 66% | % Weed Control (Aj) (Aj (Aneiliema japonica); 5 DAT, .5 kg/ha): 84% | % Weed Control (Aj) (Aj (Aneiliema japonica); 10 DAT, 1.0 kg/ha): 79% | % Weed Control (Aj) (Aj (Aneiliema japonica); 10 DAT, 2.0 kg/ha): 88% | % Weed Control (Aj) (Aj (Aneiliema japonica); 10 DAT, .25 kg/ha): 73% | % Weed Control (Aj) (Aj (Aneiliema japonica); 10 DAT, .5 kg/ha): 79% | % Weed Control (Mv) ([9]; 5 DAT, 1.0 kg/ha): 89% | % Weed Control (Mv) ([9]; 5 DAT, 2.0 kg/ha): 82% | % Weed Control (Mv) ([9]; 5 DAT, .25 kg/ha): 72% | % Weed Control (Mv) ([9]; 5 DAT, .5 kg/ha): 80% | % Weed Control (Mv) ([9]; 10 DAT, 1.0 kg/ha): 72% | % Weed Control (Mv) ([9]; 10 DAT, 2.0 kg/ha): 83% | % Weed Control (Mv) ([9]; 10 DAT, .25 kg/ha): 53% | % Weed Control (Mv) ([9]; 10 DAT, .5 kg/ha): 80% | % Weed Control (Ci) (Ci (Cyperus iria); 5 DAT, 1.0 kg/ha): 100% | % Weed Control (Ci) (Ci (Cyperus iria); 5 DAT, 2.0 kg/ha): 95% | % Weed Control (Ci) (Ci (Cyperus iria); 5 DAT, .25 kg/ha): 85% | % Weed Control (Ci) (Ci (Cyperus iria); 5 DAT, .5 kg/ha): 95% | % Weed Control (Ci) (Ci (Cyperus iria); 10 DAT, 1.0 kg/ha): 97% | % Weed Control (Ci) (Ci (Cyperus iria); 10 DAT, 2.0 kg/ha): 93% | % Weed Control (Ci) (Ci (Cyperus iria); 10 DAT, .25 kg/ha): 74% | % Weed Control (Ci) (Ci (Cyperus iria); 10 DAT, .5 kg/ha): 98% | % Weed Control (Eo) ([10]; 5 DAT, 1.0 kg/ha): 91% | % Weed Control (Eo) ([10]; 5 DAT, 2.0 kg/ha): 94% | % Weed Control (Eo) ([10]; 5 DAT, .25 kg/ha): 86% | % Weed Control (Eo) ([10]; 5 DAT, .5 kg/ha): 93% | % Weed Control (Eo) ([10]; 10 DAT, 1.0 kg/ha): 90% | % Weed Control (Eo) ([10]; 10 DAT, 2.0 kg/ha): 92% | % Weed Control (Eo) ([10]; 10 DAT, .25 kg/ha): 82% | % Weed Control (Eo) ([10]; 10 DAT, .5 kg/ha): 88% | control of Obw in words ([11]; 0.25 kg/ha both plots, 1.0 kg/ha ordinary): controlled completely | % Weed Control (Obw) [11, 12]: 96% | % Weed Control (Obw) [11, 13]: 100% | % Weed Control (Obw) [11, 14]: 100% | % Weed Control (Obw) [11, 15]: 100% | % Weed Control (Obw) [11, 16]: 83% | % Weed Control (Obw) [11, 17]: 82%
